The results in this text go back to patent US11344549B2 (priority 2017, dated 2022).

One test concerns the target JAK1 kinase (Homo sapiens (Human), UniProt P23458). The following applies: read-out: JAK1 IC50.
A further test addresses JAK2 kinase (Homo sapiens (Human), UniProt O60674). The conditions noted are these: read-out: JAK2 IC50.

Chain of JAK1 kinase (P23458 850-1154): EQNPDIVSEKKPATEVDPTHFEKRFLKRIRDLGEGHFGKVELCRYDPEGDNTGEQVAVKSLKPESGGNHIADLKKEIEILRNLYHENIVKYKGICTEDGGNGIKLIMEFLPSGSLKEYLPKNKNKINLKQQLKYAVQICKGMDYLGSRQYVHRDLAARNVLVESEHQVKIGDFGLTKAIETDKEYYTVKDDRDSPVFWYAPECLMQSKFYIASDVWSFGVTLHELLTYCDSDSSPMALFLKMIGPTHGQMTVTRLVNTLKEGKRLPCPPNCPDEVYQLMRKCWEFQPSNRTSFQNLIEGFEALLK
Chain of JAK2 kinase (O60674 826-1132): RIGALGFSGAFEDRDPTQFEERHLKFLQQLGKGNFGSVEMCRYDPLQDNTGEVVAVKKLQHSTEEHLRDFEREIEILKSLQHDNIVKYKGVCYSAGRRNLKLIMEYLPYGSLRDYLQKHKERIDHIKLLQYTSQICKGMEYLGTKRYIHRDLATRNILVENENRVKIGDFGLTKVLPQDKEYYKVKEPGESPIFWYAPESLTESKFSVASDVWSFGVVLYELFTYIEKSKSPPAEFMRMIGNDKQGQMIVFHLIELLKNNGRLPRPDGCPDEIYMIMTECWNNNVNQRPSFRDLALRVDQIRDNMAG

By IC50 is commonly meant the concentration needed to halve the response being measured. As to `Cn1cc(Nc2ncc(C(N)=O)c(NCc3ccccc3)n2)cn1` [Example 1, 4-benzylamino-2-((1-methyl-1H-pyrazol-4-yl)amino)pyrimidin-5-carboxamide], the IC50 on JAK1 kinase turned out to be 84.7 nM; on JAK2 kinase, 9.5 nM.

With `COc1ccccc1CNc1nc(Nc2cnn(C)c2)ncc1C(N)=O` [Example 2, 4-((2-methoxybenzyl)amino)-2-((1-methyl-1H-pyrazol-4-yl)amino)pyrimidin-5-carboxamide], the figures for the concentration for half-maximal inhibition (IC50) on JAK1 kinase and at JAK2 kinase were 2.53 nM and 2.19 nM, respectively.

Turning to `COc1cccc(F)c1CNc1nc(Nc2cnn(C)c2)ncc1C(N)=O` [Example 3, 4-((2-fluoro-6-methoxybenzyl)amino)-2-((1-methyl-1H-pyrazol-4-yl)amino)pyrimidin-5-carboxamide], the IC50 came out at 2.81 nM on JAK1 kinase and 0.57 nM on JAK2 kinase.

With `Cn1cc(Nc2ncc(C(N)=O)c(NCc3c(Cl)cccc3Cl)n2)cn1` [Example 5, 4-((2,6-dichlorobenzyl)amino)-2-((1-methyl-1H-pyrazol-4-yl)amino)pyrimidin-5-carboxamide], the IC50 on JAK1 kinase turned out to be 23.4 nM.

`COCCn1cc(Nc2ncc(C(N)=O)c(NCc3c(F)cccc3F)n2)cn1` [Example 6, 4-((2,6-difluorobenzyl)amino)-2-((1-(2-methoxyethyl)-1H-pyrazol-4-yl)amino)pyrimidin-5-carboxamide]: the concentration for half-maximal inhibition (IC50) at JAK1 kinase came to 29.9 nM; at JAK2 kinase it was 1.27 nM.

As for `COCCn1cc(Nc2ncc(C(N)=O)c(NCc3c(F)cccc3OC)n2)cn1` [Example 7, 4-((2-fluoro-6-methoxybenzyl)amino)-2-((1-(2-methoxyethyl)-1H-pyrazol-4-yl)amino)pyrimidin-5-carboxamide], the IC50 is 9.18 nM at JAK1 kinase and 1.01 nM at JAK2 kinase.

`Cn1cc(Nc2ncc(C(N)=O)c(NCCCCCO)n2)cn1` [Example 8, 4-((5-hydroxypentyl)amino)-2-((1-methyl-1H-pyrazol-4-yl)amino)pyrimidin-5-carboxamide]: the IC50 at JAK1 kinase came to 80.3 nM.

As to `CC(=O)N1CCC(CNc2nc(Nc3cnn(C)c3)ncc2C(N)=O)CC1` [Example 11, 4-(((1-acetylpiperidin-4-yl)methyl)amino)-2-((1-methyl-1H-pyrazol-4-yl)amino)pyrimidin-5-carboxamide], at JAK2 kinase, the IC50 is 33.3 nM.

As for `CC(=O)N1CCC(CCNc2nc(Nc3cnn(C)c3)ncc2C(N)=O)CC1` [Example 12, 4-((2-(1-acetylpiperidin-4-yl)ethyl)amino)-2-((1-methyl-1H-pyrazol-4-yl)amino)pyrimidin-5-carboxamide], the half-inhibitory concentration (IC50) at JAK1 kinase was 352 nM.

Take `CCn1cc(Nc2ncc(C(N)=O)c(NCc3c(F)cccc3F)n2)cn1` [Example 132, 4-[(2,6-difluoro-benzyl)amino]-2-[(1-ethyl-1H-pyrazol-4-yl)amino]pyrimidin-5-carboxamide]: the IC50 was 14.3 nM on JAK1 kinase and 0.51 nM at JAK2 kinase.

As to `CC(C)n1cc(Nc2ncc(C(N)=O)c(NCc3c(F)cccc3F)n2)cn1` [Example 133, 4-[(2,6-difluoro-benzyl)amino]-2-[(1-isopropyl-1H-pyrazol-4-yl)amino]pyrimidin-5-carboxamide], the half-inhibitory concentration (IC50) worked out at 22.8 nM on JAK1 kinase and 0.47 nM at JAK2 kinase.

In the case of `NC(=O)c1cnc(Nc2cnn(C3CC3)c2)nc1NCc1c(F)cccc1F` [Example 134, 4-[(2,6-difluoro-benzyl)amino]-2-[(1-cyclopropyl-1H-pyrazol-4-yl)amino]pyrimidin-5-carboxamide], the 50% inhibitory concentration (IC50) at JAK2 kinase was determined as 1.19 nM.

Regarding `NC(=O)c1cnc(Nc2cnn(C3CCC3)c2)nc1NCc1c(F)cccc1F` [Example 135, 4-[(2,6-difluoro-benzyl)amino]-2-[(1-cyclobutyl-1H-pyrazol-4-yl)amino]pyrimidin-5-carboxamide], the IC50 amounted to 30.3 nM on JAK1 kinase and 0.61 nM at JAK2 kinase.

As to `NC(=O)c1cnc(Nc2cnn(C3CCOCC3)c2)nc1NCc1c(F)cccc1F` [Example 137, 4-[(2,6-difluoro-benzyl)amino]-2-[[1-(tetra hydro-2H-pyran-4-yl)-1H-pyrazol-4-yl)amino]pyrimidin-5-carboxamide], the IC50 on JAK1 kinase turned out to be 16.4 nM; on JAK2 kinase, 0.27 nM.

Consider `NC(=O)c1cnc(Nc2cnn(CC3CCCO3)c2)nc1NCc1c(F)cccc1F` (centres unmarked) [Example 138, 4-[(2,6-difluoro-benzyl)amino]-2-[[1-((tetrahydro-furan-2-yl)methyl)-1H-pyrazol-4-yl]amino]pyrimidin-5-carboxamide], for which the IC50 at JAK1 kinase was found to be 88.9 nM; on JAK2 kinase, 1.24 nM.

Turning to `CC(C)(O)Cn1cc(Nc2ncc(C(N)=O)c(NCc3c(F)cccc3F)n2)cn1` [Example 145, 4-[(2,6-difluoro-benzyl)amino]-2-[[1-(2-hydroxy-2-methylpropyl)-1H-pyrazol-4-yl]amino]pyrimidin-5-carboxamide], the concentration for half-maximal inhibition (IC50) on JAK1 kinase is 20.3 nM; on JAK2 kinase, 2.08 nM.

For the molecule `CCn1cc(Nc2ncc(C(N)=O)c(NCc3c(F)cccc3OC)n2)cn1` [Example 150, 4-[(2-fluoro-6-methoxybenzyl)amino]-2-[(1-ethyl-1H-pyrazol-4-yl)amino]pyrimidin-5-carboxamide], the half-inhibitory concentration (IC50) on JAK1 kinase worked out at 3.22 nM.

As for `COc1cccc(F)c1CNc1nc(Nc2cnn(C(C)C)c2)ncc1C(N)=O` [Example 151, 4-[(2-fluoro-6-methoxybenzyl)amino]-2-[(1-isopropyl-1H-pyrazol-4-yl)amino]pyrimidin-5-carboxamide], the values for the 50% inhibitory concentration (IC50) on JAK1 kinase and at JAK2 kinase were 2.77 nM and 0.61 nM, respectively.

Take `COc1ccccc1CNc1nc(Nc2cnn(CCO)c2)ncc1C(N)=O` [Example 172, 4-[(2-methoxybenzyl)amino]-2-[[1-(2-hydroxyethyl)-1H-pyrazol-4-yl]amino]pyrimidin-5-carboxamide]: the IC50 at JAK1 kinase was 15.6 nM; on JAK2 kinase it was 0.95 nM.

For `Cc1cccc(C)c1CNc1nc(Nc2cnn(CCO)c2)ncc1C(N)=O` [Example 174, 4-[(2,6-dimethyl-benzyl)amino]-2-[[1-(2-hydroxy-ethyl)-1H-pyrazol-4-yl]amino]pyrimidin-5-carboxamide], the IC50 worked out at 54.7 nM at JAK1 kinase and 3.06 nM on JAK2 kinase.

In the case of `C=CCCNc1nc(Nc2cnn(C(C)(C)C)c2)ncc1C(N)=O` [Example 228, 4-(but-3-en-1-ylamino)-2-((1-(tert-butyl)-1H-pyrazol-4-yl)amino)pyrimidin-5-carboxamide], the half-maximal inhibitory concentration (IC50) at JAK2 kinase was 13.9 nM.

Regarding `C=C(C)CNc1nc(Nc2cnn(C(C)(C)C)c2)ncc1C(N)=O` [Example 229, 2-((1-tert-butyl-1H-pyrazol-4-yl)amino)-4-((2-methylallyl)amino)pyrimidin-5-carboxamide], on JAK2 kinase, the 50% inhibitory concentration (IC50) came to 2.8 nM.

As for `CC(C)=CCNc1nc(Nc2cnn(C(C)(C)C)c2)ncc1C(N)=O` [Example 230, 2-((1-(tert-butyl)-1H-pyrazol-4-yl)amino)-4-((3-methylbut-2-en-1-yl)amino)pyrimidin-5-carboxamide], the 50% inhibitory concentration (IC50) came out at 28.1 nM on JAK1 kinase and 1.7 nM on JAK2 kinase.

`C=C(C)CNc1nc(Nc2cnn(C3CCOCC3)c2)ncc1C(N)=O` [Example 232, 4-((2-methylallyl)amino)-2-((1-(tetrahydro-2H-pyran-4-yl)-1H-pyrazol-4-yl)amino)pyrimidin-5-carboxamide]: the IC50 on JAK1 kinase was determined as 34.4 nM; on JAK2 kinase, 2 nM.

As for `CC(C)=CCNc1nc(Nc2cnn(C3CCOCC3)c2)ncc1C(N)=O` [Example 233, 4-((3-methylbut-2-en-1-yl)amino)-2-((1-(tetrahydro-2H-pyran-4-yl)-1H-pyrazol-4-yl)amino)pyrimidin-5-carboxamide], the IC50 at JAK1 kinase came to 6.5 nM; at JAK2 kinase, 0.9 nM.

`C=CCCNc1nc(Nc2cnn(C3CCOCC3)c2)ncc1C(N)=O` [Example 234, 4-(but-3-en-1-ylamino)-2-((1-(tetrahydro-2H-pyran-4-yl)-1H-pyrazol-4-yl)amino)pyrimidin-5-carboxamide]: the IC50 at JAK1 kinase was 31 nM; on JAK2 kinase, 1.2 nM.

On to `CC(C)(C)n1cc(Nc2ncc(C(N)=O)c(NCC3CC=CC3)n2)cn1` [Example 236, 2-((1-(tert-butyl)-1H-pyrazol-4-yl)amino)-4-((cyclopent-3-en-1-ylmethyl)amino)pyrimidin-5-carboxamide], for which the half-maximal inhibitory concentration (IC50) on JAK1 kinase stood at 7.6 nM; on JAK2 kinase it was 2.6 nM.

With `C=CCNc1nc(Nc2cnn(C(C)(C)C)c2)ncc1C(N)=O` [Example 238, 4-(allylamino)-2-((1-(tert-butyl)-1H-pyrazol-4-yl)amino)pyrimidin-5-carboxamide], the IC50 stood at 11.5 nM at JAK1 kinase and 3.6 nM on JAK2 kinase.

For `C=C(C)CCNc1nc(Nc2cnn(C(C)(C)C)c2)ncc1C(N)=O` [Example 242, 2-((1-tert-butyl-1H-pyrazol-4-yl)amino)-4-((3-methylbut-3-en-1-yl)amino)pyrimidin-5-carboxamide], the figures for the 50% inhibitory concentration (IC50) at JAK1 kinase and on JAK2 kinase were 8 nM and 1.5 nM, respectively.

As for `C=C(C)CCCNc1nc(Nc2cnn(C(C)(C)C)c2)ncc1C(N)=O` [Example 244, 2-((1-tert-butyl-1H-pyrazol-4-yl)amino)-4-((4-methylpent-4-en-1-yl)amino)pyrimidin-5-carboxamide], the IC50 at JAK1 kinase was determined as 10.8 nM; on JAK2 kinase, 3 nM.

As for `CC(C)=CCCCNc1nc(Nc2cnn(C(C)(C)C)c2)ncc1C(N)=O` [Example 245, 2-((1-tert-butyl-1H-pyrazol-4-yl)amino)-4-((5-methylhex-4-en-1-yl)amino)pyrimidin-5-carboxamide], the values for the IC50 at JAK1 kinase and at JAK2 kinase were 40.8 nM and 16.9 nM, respectively.

In the case of `CC(C)C/C=C/CNc1nc(Nc2cnn(C(C)(C)C)c2)ncc1C(N)=O` [Example 246, (E)-2-((1-tert-butyl-1H-pyrazol-4-yl)amino)-4-((5-methylhex-2-en-1-yl)amino)pyrimidin-5-carboxamide], the 50% inhibitory concentration (IC50) at JAK1 kinase came to 345 nM; on JAK2 kinase it was 42.5 nM.
